Legend:
[1] = system: dogs subjected to partial medial meniscectomy; assay: Dog partial medial meniscectomy study, cartilage area image analysis; assay type: in vivo
Procedure: In order to quantitate and compare the cartilage matrix preservation, cartilage area measurements were taken from the most severely affected section of each animal. In this section, the most severely affected area - generally zone 2 - is analyzed at 25x magnification. Photomicrographs were taken with a digital microscope camera, and analyzed with appropriate software. The following measurements were taken:
Total area from the tidemark to the surface (or projected surface in degenerated areas), extending from the axial to abaxial aspects of the medial tibial plateau zones in the most severely affected area (generally zone 2)
Area of non-viable matrix (cartilage with less than 50% chondrocytes, proteoglycan, and intact collagen) and no matrix within the total area of zone 2 or most severely affected area in the photomicrograph
Area of no matrix within the total area being analyzed
The area of non-viable matrix in zone under analysis was subtracted from the total area in the photomicrograph to get the area of viable matrix in this area, and the area of no matrix was subtracted from the total area to get the area of any matrix (collagen matrix with or without chondrocytes and proteoglycan). These two values were then compared back to the total area to derive the % viable area and the % any matrix in this area of greatest lesion severity, which were compared between groups.

[2] = system: cartilage degradation biomarker CTX-II; assay: Urinary CTX-II (cartilage degradation biomarker) in ACLT rabbits; assay type: in vivo, rabbit
Procedure: (§1) Starting 1 week after sham operation or ACLT, animals were dosed daily for 7 weeks by oral gavage with either MIV-711 (synthesized by Medivir and given as a suspension in 1% Methocel A4C in water) or vehicle (1% Methocel A4C in water) at a dose volume of 4 mL/kg. The four treatment groups (n = 7 in each group) were: (1) sham + vehicle; (2) ACLT + vehicle; (3) ACLT + MIV-711, 30 µmol/kg (low dose) and (4) ACLT + MIV-711, 100 µmol/kg (high dose).
Urine was collected in the morning from all animals for biomarker measurements before surgery, before dosing on Day 1, Day 10 and during Week 4 and Week 7. The urine was stored frozen (− 70 to − 80 °C) until analysis.
In rabbits, conventional CTX-I assays to assess bone resorption cannot be used due to species differences. Instead, urinary helical peptide (HP-1) concentrations were measured in rabbits using the MicroVue Helical Peptide kit (Ref: 8022) from Quidel (San Diego, CA) according to the instructions supplied by the manufacturer. In dogs, urinary levels of C-terminal telopeptide of collagen type I (CTX-I) were measured using a commercially available kit (Urine BETA CrossLaps ELISA, Ref: AC-05F1, IDS Nordic Bioscience Diagnostics A/S). In rabbits and dogs, urinary concentrations of C-terminal telopeptide of collagen type II (CTX-II) were measured using the Urine CartiLaps EIA kit (Ref: AC-10F1) from Immunodiagnostics Systems (IDS, Herlev, Denmark) according to the instructions supplied by the manufacturer. In dogs, CTX-II levels were also measured in synovial fluid. Before ELISA analysis, 95 µL of synovial fluid was mixed with 5 µL of hyaluronidase (100 U/mL, Sigma, H-3884). The mixture was incubated overnight at 35 °C. The mixture was then used to measure CTX-II levels (Serum Pre-Clinical CartiLaps ELISA, Ref: AC-08F1, IDS Nordic Bioscience Diagnostics A/S). The creatinine levels in urine were determined at Swedish University of Agricultural Sciences (Uppsala, Sweden), using the enzymatic assay (Cat No. 8L24-01) on the Abbott system Architect c4000.

[3] = Plasma concentrations of MIV-711 in ACLT rabbits (LC-MS/MS); assay type: in vivo; settings: rabbit plasma
Procedure: as §1
Twelve blood samples of 1 mL each were collected from each animal for determination of MIV-711 concentrations in a staggered manner to cover as many time points as possible. The blood samples were collected on Day 1, Day 10 and during Week 4 and Week 7. The samples were collected in EDTA coated tubes and kept on ice. The plasma was separated by centrifugation (2000g for 3–5 min at 4 °C) and then frozen and kept at − 70 °C until analysis.
To measure MIV-711 concentrations, 10–50 µL of plasma or synovial fluid was mixed with 30–150 µL of acetonitrile, samples were centrifuged (10 min, 20,000g, 7 °C) and 5 µL of the supernatant was injected onto the LC–MS/MS system. The lower limit of quantification (LLOQ) was 1 nmol/L.

[4] = system: dogs subjected to partial medial meniscectomy; assay: Dog study, principal components analysis of exposure, biomarker, macro- and microscopic data; assay type: in vivo; settings: 30 µmol/kg, p < 0.001
Procedure: Biomarker data was evaluated by two-way ANOVA, followed by Bonferroni’s or Dunnett’s correction for multiple comparisons when appropriate, using GraphPad Prism, version 6 (San Diego, CA). Synovial MIV-711 exposure data was evaluated by Student’s paired t-test. Data from µCT in rabbits was evaluated by one-way ANOVA followed by Dunnett’s correction for multiple comparisons (GraphPad). Macroscopic parameters in dogs were compared using Student’s unpaired t-test. The exposure data, biomarker data and macro- and microscopic data from the dog study were also imported into R (R Foundation for Statistical Computing Version 2.15.0, Vienna, Austria). A principal components analysis was performed using procedure prcomp. Derived scores were subjected to t-tests in Microsoft Excel 2007. Data are expressed as mean ± SEM, n = number of animals. A p-value < 0.05 was considered statistically significant.

[5] = individual animals of MIV-711 group, per section level (first line of animal, L2, L3)
[6] = single oral administration 30 µmol/kg
[7] = single oral administration 100 µmol/kg

## C#C[C@@H]1CN(C(=O)[C@H](CC(C)C)NC(=O)c2ccc(-c3nc(N4CCN(C)CC4)sc3F)cc2)[C@@H]2C(=O)CO[C@H]12 [MIV-711]
[1]; group Mean
  Cartilage Area: % Any Matrix Area: 96%
  Cartilage Area: % Viable Area: 88%
[1]; [5]
  Cartilage Area: % Any Matrix Area: 100%
  Cartilage Area: % Viable Area: 100%
[1]; versus Vehicle
  Percent Inhibition, % Any Matrix Area: -11%
  Percent Inhibition, % Viable Area: 8%
[2]; ACLT rabbits, over doses 30 and 100 µmol/kg and time points
  CTX-II levels decreased by up to, vs ACLT vehicle controls: up to 74%
[2]; after 4 weeks, 30 µmol/kg (p > 0.05)
  urinary CTX-II levels reduced by, vs ACLT rabbits treated with vehicle: 38%
[2]; after 4 weeks, 100 µmol/kg
  urinary CTX-II levels reduced by, vs ACLT rabbits treated with vehicle: 49%
[2]; after 7 weeks, 30 µmol/kg (p > 0.05)
  urinary CTX-II levels reduced by, vs ACLT rabbits treated with vehicle: 14%
[2]; after 7 weeks, 100 µmol/kg
  urinary CTX-II levels reduced by, vs ACLT rabbits treated with vehicle: 52%
[2]; after 10 days of dosing, 30 µmol/kg
  urinary CTX-II levels reduced by, vs ACLT rabbits treated with vehicle: 53%
[2]; after 10 days of dosing, 100 µmol/kg
  urinary CTX-II levels reduced by, vs ACLT rabbits treated with vehicle: 74%
[3]; [6]
  AUC0–24 h: 0.78 µM·h
  Cmax: 250 nM
[3]; [7]
  AUC0–24 h: 7.0 µM·h
  Cmax: 1800 nM
[4]
  principal component Score 2 (mainly biomarker data), vehicle vs MIV-711-treated groups: significantly different
